Assays:
[1] = system: CHIKV; assay: antiviral activity against CHIKV (VTR and EC90); type: cell-based; conditions: Chikungunya virus; for log reduction at 10 µM: read-out: VTR @ 10 μM (logs)
Excerpt: As used herein, “EC90,” is intended to refer to the concentration of a substance (e.g., a compound or a drug) that is required for 90% agonism of a biological process, or component of a process, including a protein, subunit, organelle, ribonucleoprotein, etc. In one aspect, an EC90 can refer to the concentration of a substance that is required for 90% agonism in vivo, as further defined elsewhere herein. In a further aspect, […].

[2] = cell cytotoxicity in a cell viability assay (CC50); type: cell-based; conditions: concentration required for 50% cell survival
Excerpt: As used herein, “CC50,” is intended to refer to the cell cytotoxicity to the concentration of a substance (e.g., a compound or a drug) that is required for 50% cell survival in a cell viability assay in vitro.

Structure (SMILES)	EC90 [1] [µM]	log reduction at 10 µM [1]	CC50 [2] [µM]
CSc1ncccc1C(=O)Nc1nc(-c2cccc(-c3ccc(C#N)c(O)c3)c2)cs1 [Compound 22, N-(4-(4′-Cyano-3′-hydroxy-[1,1′-biphenyl]-3-yl)thiazol-2-yl)-2-(methylthio)nicotinamide]	1.6	8.5	> 30
COc1ncc(-c2cccc(-c3csc(NC(=O)c4cccnc4SC)n3)c2)cn1 [Compound 28, N-(4-(3-(2-Methoxypyrimidin-5-yl)phenyl)thiazol-2-yl)-2-(methylthio)nicotinamide]	–	2.52	> 40
CSc1ncccc1C(=O)Nc1nc(-c2cccc(Nc3ccc(C)c(C#N)c3)c2)cs1 [Compound 48, N-(4-(3-((3-cyano-4-methylphenyl)amino)phenyl)thiazol-2-yl)-2-(methylthio)nicotinamide]	0.89	4.52	> 40
CSc1ncccc1C(=O)Nc1nc(-c2cccc(-c3ccc(C(=O)O)cc3)c2)cs1 [Compound 24, 3′-(2-(2-(Methylthio)nicotinamido)thiazol-4-yl)-[1,1′-biphenyl]-4-carboxylic acid]	–	1.49	> 40
CSc1ncccc1C(=O)Nc1nc(-c2cc(Nc3ccc(C#N)cc3)cc(N3CCOCC3)c2)cs1 [Compound 47, N-(4-(3-((4-cyanophenyl)amino)-5-morpholinophenyl)thiazol-2-yl)-2-(methylthio)nicotinamide]	0.1	5.14	> 40
COc1c(F)cc(C(=O)Nc2nc(-c3cccc(-c4ccc(C#N)cc4)c3)cs2)cc1F [Compound 10, N-(4-(4′-Cyano-[1,1′-biphenyl]-3-yl)thiazol-2-yl)-3,5-difluoro-4-methoxybenzamide]	0.31	7.6	> 30
N#Cc1ccc(-c2cccc(-c3csc(NC(=O)c4cccnc4SC(F)F)n3)c2)cc1 [Compound 6, N-(4-(4′-Cyano-[1,1′-biphenyl]-3-yl)thiazol-2-yl)-2-((difluoromethyl)thio)nicotinamide]	–	7.6	> 30
N#Cc1ccc(Nc2cccc(-c3csc(NC(=O)C45CC(C#N)(C4)C5)n3)c2)cc1 [Compound 52, 3-cyano-N-(4-(3-((4-cyanophenyl)amino)phenyl)thiazol-2-yl)bicyclo[1.1.1]pentane-1-carboxamide]	1.5	5.58	9
CSc1ncccc1C(=O)Nc1nc(-c2cccc(Nc3cccc(C#N)c3)c2)cs1 [Compound 38, N-(4-(3-((3-Cyanophenyl)amino)phenyl)thiazol-2-yl)-2-(methylthio)nicotinamide]	0.15	5.72	> 40
CSc1ncccc1C(=O)Nc1nc(-c2cccc(-c3ccccn3)c2)cs1 [Compound 2, 2-(Methylthio)-N-(4-(3-(pyridin-2-yl)phenyl)thiazol-2-yl)nicotinamide]	0.7	3.97	> 30
COC(=O)c1ccc(-c2cccc(-c3csc(NC(=O)c4cccnc4SC)n3)c2)cc1 [Compound 23, Methyl 3′-(2-(2-(methylthio)nicotinamido)thiazol-4-yl)-[1,1′-biphenyl]-4-carboxylate]	0.822	8.69	> 40
CSc1ncccc1C(=O)Nc1nc(-c2cccc(-c3ccc(C(N)=O)cc3)c2)cs1 [Compound 25, N-(4-(4′-Carbamoyl-[1,1′-biphenyl]-3-yl)thiazol-2-yl)-2-(methylthio)nicotinamide]	0.21	2.43	17.9
CSc1ncccc1C(=O)Nc1nc(-c2cccc(N3CCOCC3)c2)cs1 [Compound 34, 2-(Methylthio)-N-(4-(3-morpholinophenyl)thiazol-2-yl)nicotinamide]	–	1.88	> 40
CSc1ncccc1C(=O)Nc1nc(-c2cccc(N3CCCC3=O)c2)cs1 [Compound 35, 2-(Methylthio)-N-(4-(3-(2-oxopyrrolidin-1-yl)phenyl)thiazol-2-yl)nicotinamide]	–	< 1	39.4
CSc1ncccc1C(=O)Nc1nc(-c2cccc(-c3ccc(C#N)cc3)n2)cs1 [Compound 13, N-(4-(6-(4-Cyanophenyl)pyridin-2-yl)thiazol-2-yl)-2-(methylthio)nicotinamide]	–	2.72	16.3
CSc1ncccc1C(=O)Nc1nc(-c2cccc(Nc3ccc(C#N)cn3)c2)cs1 [Compound 51, N-(4-(3-((5-cyanopyridin-2-yl)amino)phenyl)thiazol-2-yl)-2-(methylthio)nicotinamide]	4.84	2.16	> 40
CSc1ncccc1C(=O)Nc1nc(-c2cccc(-c3ccc(CN)cc3)c2)cs1 [Compound 26, N-(4-(4′-(aminomethyl)-[1,1′-biphenyl]-3-yl)thiazol-2-yl)-2-(methylthio)nicotinamide]	0.75	8.75	> 40

Structure (SMILES)	EC90 [1] [µM]	log reduction at 10 µM [1]	CC50 [2] [µM]
CC(C)(C)c1ccc(C(=O)Nc2nc(-c3cccc(-c4ccc(CN)cc4)c3)cs2)cc1 [Compound 27, N-(4-(4′-(Aminomethyl)-[1,1′-biphenyl]-3-yl)thiazol-2-yl)-4-(tert-butyl)benzamide]	1.27	5.24	9.02
CSc1ncccc1C(=O)Nc1nc(-c2cccc(Oc3ccccc3)c2)cs1 [Compound 36, 2-methylsulfanyl-N-[4-(3-phenoxyphenyl)thiazol-2-yl]pyridine-3-carboxamide]	–	4.87	> 40
CSc1ncccc1C(=O)Nc1nc(-c2cccc(N3CCNCC3)c2)cs1 [Compound 31, 2-(Methylthio)-N-(4-(3-(piperazin-1-yl)phenyl)thiazol-2-yl)nicotinamide]	9.1	8.69	> 30
CSc1ncccc1C(=O)Nc1nc(-c2cccc(-c3cccc(C#N)c3)c2)cs1 [Compound 5, N-(4-(3′-Cyano-[1,1′-biphenyl]-3-yl)thiazol-2-yl)-2-(methylthio)nicotinamide]	0.098	5.25	> 40
CSc1ncccc1C(=O)Nc1nc(-c2cccc(-c3ccccc3)c2)cs1 [Compound 1, N-(4-([1,1′-Biphenyl]-3-yl)thiazol-2-yl)-2-(methylthio)nicotinamide]	0.38	7.82	> 40
CSc1ncccc1C(=O)Nc1nc(-c2cccc(-c3ccc(F)cn3)c2)cs1 [Compound 15, N-(4-(3-(5-Fluoropyridin-2-yl)phenyl)thiazol-2-yl)-2-(methylthio)nicotinamide]	0.33	5.64	> 40
CSc1ncccc1C(=O)Nc1nc(-c2cccc(Nc3ccc(CN)cc3)c2)cs1 [Compound 45, N-(4-(3-((4-(aminomethyl)phenyl)amino)phenyl)thiazol-2-yl)-2-(methylthio)nicotinamide]	5.8	1.23	12.8
N#Cc1ccc(-c2cccc(-c3csc(NC(=O)C4CCNCC4)n3)c2)cc1 [Compound 11, N-(4-(4′-Cyano-[1,1′-biphenyl]-3-yl)thiazol-2-yl)piperidine-4-carboxamide]	–	8.5	> 30
N#Cc1ccc(Nc2cccc(-c3csc(NC(=O)C45CC(C(=O)O)(C4)C5)n3)c2)cc1 [Compound 42, 3-((4-(3-((4-Cyanophenyl)amino)phenyl)thiazol-2-yl)carbamoyl)bicyclo[1.1.1]pentane-1-carboxylic Acid]	> 10	0	> 40
CSc1ncccc1C(=O)Nc1nc(-c2cccc(-c3ccncc3)c2)cs1 [Compound 3, 2-(Methylthio)-N-(4-(3-(pyridin-4-yl)phenyl)thiazol-2-yl)nicotinamide]	–	< 1	> 40
CSc1ncccc1C(=O)Nc1nc(-c2cccc(N3CCN(C(C)=O)CC3)c2)cs1 [Compound 32, N-(4-(3-(4-acetylpiperazin-1-yl)phenyl)thiazol-2-yl)-2-(methylthio)nicotinamide]	–	< 1	> 40
N#Cc1ccc(-c2cccc(-c3csc(NC(=O)c4cccnc4C(F)(F)F)n3)c2)cc1 [Compound 7, N-(4-(4′-Cyano-[1,1′-biphenyl]-3-yl)thiazol-2-yl)-2-(trifluoromethyl)nicotinamide]	–	5.09	8.07
CSc1ncccc1C(=O)Nc1nc(-c2cc(-c3ccc(C#N)cc3)ccc2F)cs1 [Compound 17, N-(4-(4′-Cyano-4-fluoro-[1,1′-biphenyl]-3-yl)thiazol-2-yl)-2-(methylthio)nicotinamide]	0.34	5.75	25
CSc1ncccc1C(=O)Nc1nc(-c2cccc(Nc3cccc(C(F)(F)F)c3)c2)cs1 [Compound 40, 2-(Methylthio)-N-(4-(3-((3-(trifluoromethyl)phenyl)amino)phenyl)thiazol-2-yl)nicotinamide]	3.1	5.36	> 40
CSc1ncccc1C(=O)Nc1nc(-c2cccc(-c3ccc(C#N)cc3)c2)cs1 [Compound 4, N-(4-(4′-Cyano-[1,1′-biphenyl]-3-yl)thiazol-2-yl)-2-(methylthio)nicotinamide]	0.31	4.73	> 40
COC1CCC(C(=O)Nc2nc(-c3cccc(Nc4ccc(C#N)cc4)c3)cs2)CC1 (stereo not shown) [Compound 50, N-(4-(3-((4-cyanophenyl)amino)phenyl)thiazol-2-yl)-4-methoxycyclohexane-1-carboxamide]	0.1	4.53	12.4

Reference: patent US20200399264A1, “4-SUBSTITUTED-2-THIAZOLE AMIDES AS ANTIVIRAL AGENTS” (Southern Research Institute, priority 2019, published 2020)
